Experimental data from patent US6080731A, “Dinucleoside-5', 5'-pyrophosphates administered to treat HIV” (Biosearch Italia, S.p.A., priority 1994, dated 2000).

Tests used:
HIV = assay: Anti-HIV in vitro activity: inhibition of the HIV-induced cytopathic effect in MT-4 cells; format: cell-based; conditions: Human immunodeficiency virus 1, MT4, read-out: 50% effective concentration (IC50)
From the text: (§1) To confirm the anti-HIV activity of some dinucleoside-5',5'-P^1,P^2-pyrophosphates representative of this invention, invitro tests have been carried out on a HTLV-1 transformed cell line, MT-4, which is highly susceptible to and permissive for HIV infection. The inhibition of the HIV-induced cytopathic effect was used as the end point. The procedure of this test is essentially that described by R. Pauwels et al. "Rapid and automated tetrazolium-based calorimetric assay for the detection of anti-HIV compounds". Journal of Virological Methods, 20, (1988), 309-321.
(§2) Thymine-3'-azido-2',3'-dideoxy-D-riboside (AZT) was taken as control compound.

[1] = 50% cytotoxic concentration in MT-4 cells; format: cell-based; conditions: human
From the text: as §1, §2

[2] = Concentration of di-AZT-5',5'-P^1,P^2 -pyrophosphate and its metabolites in loaded human red blood cells; format: in vitro ADME; conditions: 37° C., autologous plasma; for Concentration into human red blood cells: 10% hematocrit, erythrocytes loaded with di-AZT-pyrophosphate
Experimental: (§3) A two step procedure was used consisting of a first dialysis of the washed and packed erythrocytes (80% hematocrit) against 70 volumes of hemolysing buffer (5 mM Na2 HPO4 supplemented with 4 mM MgCl2, pH 7.2, 26 mOsm) for 35 minutes at 4° C. under gentle rotation. This step was followed by addition of 10-15 mM di-AZT-5',5'-P^1,P^2 -pyrcphosphate inside the dialysis bag and further dialysis for 15 minutes under the same conditions. Erythrocytes were then resealed by dialysing them for 40 minutes at 4° C. against phosphate-saline buffer, pH 7.4, supplemented with 10 mM glucose and adenosine, 310 mOsm. The loaded erythrocytes were then extensively washed with ice-cold aqueous NaCl (0.9% w/w) and incubated at 37° C. in autologous plasma at 10% hematocrit.
(§4) The concentration of the dinucleoside pyrophosphate and its metabolites in the plasma and red blood cells was determined at successive time intervals by using the following method.
At various times, 1 ml aliquots of the incubation mixture were withdrawn. After the separation of the erythrocytes from plasma, the two fractions were separately extracted.
100 Microliters of packed red blood cells (RBC) were added to 100 microliters of water, then 68 microliters of 3.7 M perchloric acid (PCA) were added under vigorous shaking. The sample was centrifuged and 140 microliters of the supernatant were neutralized with 30 microliters of 3 M potassium carbonate. The sample was then centrifuged to remove the formed precipitate.
(§5) 150 Microliters of the plasma fractions were treated with 50 microliters of 3.7 M PCA and 120 microliters of the supernatant were neutralized with 27 microliters of 3 M potassium carbonate and centrifuged. […] The solvent program was a linear gradient starting at 100% of buffer A (0.1 M KH2 PO4 with 5 mM tert-butylammonium hydroxide (TBA), pH 4.9) and increasing up to 100% buffer B (0.1 M KH2 PO4 with 5 mM TBA, in 40% (v/v) methanol in water, pH 4.9) in 30 minutes; 100% buffer B was maintained up to 50 minutes. The flow rate was 0.4 ml/min and the eluted compounds were monitored with a spectrophotometric detector set at 265 nm.

[3] = Concentration of di-AZT-5',5'-P^1,P^2 -pyrophosphate and its metabolites in human plasma incubated with loaded erythrocytes; format: in vitro ADME; conditions: 37° C., autologous plasma, 10% hematocrit, released from loaded erythrocytes
Experimental: as §3, §4
At various times, 1 ml aliquots of the incubation mixture were withdrawn. After the separation of the erythrocytes from plasma, the two fractions were separately extracted. […]
as §5

[4] = De-phosphorylation rate of encapsulated pro-drug; format: in vitro ADME; conditions: pro-drug for encapsulation into erythrocytes

## Cc1cn([C@H]2C[C@H](N=[N+]=[N-])[C@@H](CO)O2)c(=O)[nH]c1=O [AZT, thymine-3'-azido-2',3'-dideoxy-D-riboside, reference compound]
HIV
  IC50: 28 nM
[1]
  CC50: 70000 nM
[2]; 6 h
  Concentration into human red blood cells: 600 µM
[2]; 24 h
  Concentration into human red blood cells: 100 µM
[3]; 0 h
  Concentration in human plasma: 4.6 µM
[3]; 2 h
  Concentration in human plasma: 14.42 µM
[3]; 6 h
  Concentration in human plasma: 62.43 µM
[3]; 24 h
  Concentration in human plasma: 355.78 µM

## Cc1cn([C@H]2C[C@H](N=[N+]=[N-])[C@@H](COP(=O)(O)O)O2)c(=O)[nH]c1=O [AZT-monophosphate, thymine-3'-azido-2',3'-dideoxy-D-riboside-5'-monophosphate]
[2]; 0 h
  Concentration into human red blood cells: 40 µM
[2]; 2 h
  Concentration into human red blood cells: 90 µM
[2]; 6 h
  Concentration into human red blood cells: 650 µM
[2]; 24 h
  Concentration into human red blood cells: 930 µM
[3]; 0 h
  Concentration in human plasma: 21.94 µM
[3]; 2 h
  Concentration in human plasma: 28.21 µM
[3]; 6 h
  Concentration in human plasma: 24.68 µM
[3]; 24 h
  Concentration in human plasma: 67.11 µM

## Cc1cn([C@H]2C[C@H](N=[N+]=[N-])[C@@H](COP(=O)(O)OP(=O)(O)OC[C@H]3O[C@@H](n4cc(C)c(=O)[nH]c4=O)C[C@@H]3N=[N+]=[N-])O2)c(=O)[nH]c1=O [Compound 1, di-(thymine-3'-azido-2',3'-dideoxy-D-riboside)-5',5'-P^1,P^2-pyrophosphate]
HIV
  IC50: 31 nM
[1]
  CC50: > 100000 nM
[2]; 0 h
  Concentration into human red blood cells: 3900 µM
[2]; 2 h
  Concentration into human red blood cells: 4100 µM
[2]; 6 h
  Concentration into human red blood cells: 2900 µM
[2]; 24 h
  Concentration into human red blood cells: 1800 µM
[2]; human red blood cells
  Release from the erythrocytes: released from the erythrocytes at a very low rate
[3]; 0 h
  Concentration in human plasma: 4.49 µM
[3]; 2 h
  Concentration in human plasma: 3.75 µM
[3]; 6 h
  Concentration in human plasma: 5.27 µM
[3]; 24 h
  Concentration in human plasma: 5.34 µM

## O=c1[nH]c(=O)n([C@H]2C[C@H](O)[C@@H](COP(=O)(O)OP(=O)(O)OC[C@H]3O[C@@H](n4cc(F)c(=O)[nH]c4=O)C[C@@H]3O)O2)cc1F [Example 6, di-(5-fluorouracil-2'-deoxy-D-riboside)-5',5'-P^1,P^2-pyrophosphate]
[4]
  De-phosphorylation rate with respect to the respective monophosphate: lower de-phosphorylation rate with respect to the respective monophosphate
